{"source": "paper PMC9977638", "about": "(Medicinal Chemistry Research, 2023)", "target": "T1, human recombinant COX-2 (Homo sapiens, UniProt P35354)", "T1 sequence (P35354 18-604)": "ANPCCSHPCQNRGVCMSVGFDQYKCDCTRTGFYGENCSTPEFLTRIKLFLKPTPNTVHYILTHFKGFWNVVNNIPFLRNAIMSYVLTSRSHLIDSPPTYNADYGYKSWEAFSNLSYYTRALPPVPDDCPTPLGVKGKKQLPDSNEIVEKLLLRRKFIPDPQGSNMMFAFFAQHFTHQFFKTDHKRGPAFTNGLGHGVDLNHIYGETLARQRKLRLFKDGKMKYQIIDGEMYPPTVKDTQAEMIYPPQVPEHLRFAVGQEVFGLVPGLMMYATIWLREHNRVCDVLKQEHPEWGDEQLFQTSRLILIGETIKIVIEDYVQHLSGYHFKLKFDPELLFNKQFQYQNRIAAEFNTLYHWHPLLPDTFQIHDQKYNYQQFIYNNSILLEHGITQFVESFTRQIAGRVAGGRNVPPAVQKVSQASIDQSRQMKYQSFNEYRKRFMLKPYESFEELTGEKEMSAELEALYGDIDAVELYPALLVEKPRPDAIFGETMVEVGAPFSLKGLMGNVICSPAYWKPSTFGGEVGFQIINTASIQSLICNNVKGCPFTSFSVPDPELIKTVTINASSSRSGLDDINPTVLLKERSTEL", "format": "biochemical", "conditions": "COX-1 IC50/COX-2 IC50"}
{"compound": "Cc1ccc(Nc2c(-c3ccc(S(C)(=O)=O)cc3)nc3c(C)cccn23)cc1", "note": "[Compound 5n, 8-Methyl-2-(4-(methylsulfonyl)phenyl)-N-(p-tolyl)imidazo[1,2-a]pyridin-3-amine]", "values": [{"measurement": "Selectivity index (S.I.)", "result": 508}]}
